According to PubChem BioAssay (NCI):
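Briefly, cells in 96-well plates were exposed to five compound concentrations for 48 h, and endpoints were estimated by linear interpolation. TGI: concentration producing complete growth inhibition.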 Where a SMILES comes first, the peptide text is derived from it. The star is where a group is joined. Cbz = O=C(OCc1ccccc1)*

What was measured:
Experiment in all cases: inhibition of tumour cell growth, NCI panel, 48 h
HS 578T breast = tested on: HS 578T breast
NCI-H23 lung = tested on: NCI-H23 lung
PC-3 prostate = tested on: PC-3 prostate
OVCAR-3 ovarian = tested on: OVCAR-3 ovarian
T-47D breast = tested on: T-47D breast
SF-295 CNS = tested on: SF-295 CNS
SW-620 colon = tested on: SW-620 colon
SR leukemia = tested on: SR leukemia
KM12 colon = tested on: KM12 colon
M14 melanoma = tested on: M14 melanoma
SF-539 CNS = tested on: SF-539 CNS

| SMILES | TGI (HS 578T breast) [µM] | TGI (NCI-H23 lung) [µM] | TGI (PC-3 prostate) [µM] | TGI (OVCAR-3 ovarian) [µM] | TGI (T-47D breast) [µM] | TGI (SF-295 CNS) [µM] | TGI (SW-620 colon) [µM] | TGI (SR leukemia) [µM] | TGI (KM12 colon) [µM] | TGI (M14 melanoma) [µM] | TGI (SF-539 CNS) [µM] |
| --- | --- | --- | --- | --- | --- | --- | --- | --- | --- | --- | --- |
| O=C1c2c(Br)sc(Br)c2C(=O)C1(O)O | > 100 | 99.6 | 51.1 | 35.9 | 49.4 | > 100 | > 100 | 57.4 | > 100 | 33.6 | 39.4 |
| c1ccc2c3[nH]c(c2c1)=Nc1ccc(cc1)-c1nc2ccc(cc2o1)N=c1[nH]c(c2ccccc12)=Nc1ccc2nc(oc2c1)-c1ccc(cc1)N=3 | > 100 | > 100 | > 100 | > 100 | > 100 | > 100 | > 100 | 71.6 | > 100 | > 100 | > 100 |
| Cc1ccc(C(=O)NCc2ccccc2)cc1N=NN(C)C | > 100 | > 100 | > 100 | > 100 | > 100 | > 100 | > 100 | > 100 | > 100 | > 100 | > 100 |
| CCOc1cc(NC(C)=O)ccc1C(=O)NNS(=O)(=O)c1ccc(NC(C)=O)cc1 | > 100 | > 100 | > 100 | > 100 | > 100 | > 100 | > 100 | > 100 | > 100 | > 100 | > 100 |
| CCCCC1Cc2cc(O)ccc2-c2nc3cc(O)ccc3n21 (centres undefined) (tested in a mixture with another compound) | 35.1 | 72.5 | 53.3 | 77.7 | > 100 | 33.4 | 39.5 | 34 | 75.1 | 28.6 | 28.5 |
| N/C(=N\S(=O)(=O)c1ccc(-c2ncccc2C(F)(F)F)s1)Nc1ccc(Cl)cc1 | 40.5 | 27.5 | 25.8 | 38.7 | 48.3 | 31.6 | 35.6 | 46.4 | 81.2 | 31.2 | > 100 |
| O=[N+]([O-])c1c(F)c(F)c2c(c1F)N(CCCCCl)c1ccccc1S2 | 74.4 | 21.7 | 12.7 | 19.5 | 27.7 | 31.1 | 8.78 | > 100 | 23.5 | 18.2 | 31.9 |
| CC1(C)OP(=O)(O)C=C1Sc1ccc([N+](=O)[O-])cc1[N+](=O)[O-] | > 100 | > 100 | > 100 | > 100 | > 100 | > 100 | > 100 | > 100 | > 100 | > 100 | > 100 |
| CCOC(=O)CCC1(CCC(=O)OCC)CCCCCCCCC(CCC(=O)OCC)(CCC(=O)OCC)C(=O)C1=O | > 100 | > 100 | > 100 | > 100 | > 100 | > 100 | > 100 | > 100 | > 100 | > 100 | > 100 |
| C=C1CCCCCCCCC/C=C/1SCCCSC | > 100 | > 100 | > 100 | > 100 | > 100 | > 100 | > 100 | > 100 | > 100 | > 100 | > 100 |
| O=C1C=C(Nc2ccc(S(=O)(=O)Nc3nccs3)cc2)c2ccccc2C1=O | 75.1 | > 100 | > 100 | 36 | > 100 | 32.3 | 43 | > 100 | 37.7 | 42.8 | 41.2 |
| CC(=O)c1c(N=[N+]=[N-])c2cccc3c2n(c1=O)CCC3 | 78.3 | 45.6 | 38.6 | 18.9 | 60.4 | 60 | 30.7 | > 100 | 28.7 | 36.3 | > 100 |
| CCOC(=O)C(Cc1ccc(O)cc1)Nc1nc(=O)c2c(=O)oc(Cl)cc2o1 (centres undefined) | 11.1 | 40.5 | 21.4 | 20 | 25.7 | 29.8 | 15.2 | 7.53 | 22.5 | 15.1 | 21.9 |
| CN1CCc2c(sc3[nH]c(=S)[nH]c(=S)c23)C1 | > 100 | > 100 | > 100 | > 100 | > 100 | > 100 | > 100 | > 100 | > 100 | > 100 | > 100 |
| Cc1ccc(CSC(N)=Nc2ccccc2)cc1C | 49.1 | 57 | 60.5 | 44 | 45 | > 100 | > 100 | 55.8 | 39.7 | 41.2 | 53.1 |
| COC(=O)[C@@H](NC(=O)N(Cc1ccccc1)C[C@H](CC(C)C)NC(=O)[C@@H](NC(=O)OC(C)(C)C)C(C)C)C(C)C | > 100 | > 100 | > 100 | > 100 | > 100 | > 100 | > 100 | > 100 | > 100 | > 100 | > 100 |
| CN1CC=C(c2c(N)nc(N)[nH]c2=O)CC1 | > 100 | > 100 | > 100 | > 100 | > 100 | > 100 | > 100 | > 100 | > 100 | > 100 | > 100 |
| CCOC(=O)CCC(NC(=O)C(Cc1ccccc1)NC(=O)OCc1ccccc1)C(=O)OCC (stereo not drawn) (Cbz-Phe-Glu(OEt)-OEt; configuration not given here) | 35 | 33.1 | 32.1 | 28.6 | 32.2 | 34.1 | 34.9 | > 68.8 | 32.6 | 29.3 | 37.6 |
| N#Cc1cc2c(cc1Cl)Sc1nnc(Nc3ccccc3)n1S2(=O)=O | 6.63 | 3.26 | 3.89 | 3.82 | 13.3 | 9.2 | 3.13 | 0.696 | 4.65 | 4.78 | 4.41 |
